The values that follow come from patent US6197926A, “Methods for treatment of diabetes using peptide analogues of insulin” (Neurocrine Biosciences, priority 1999, dated 2001).

Holding throughout (test): Proliferation of insulin-specific NOD T cell clone
Holding throughout (format): cell-based, mouse
Details in all cases: 50 μg/ml peptide, 72 hours

For one experiment, the system named is T cell clone PD12-2.40. How it is done:
(§1) Insulin specific NOD T cell lines were established by culturing lymphocytes isolated from islet-infiltrating populations by in vitro stimulation with either porcine insulin at 25 μg/ml and irradiated NOD islet cells in the presence of irradiated NOD spleen cells as antigen presenting cells and cytokines. To obtain the infiltrating lymphocytes the following procedures were performed (see WeLimann et al., Eur. J. Immunol. 24:1853, 1994): the pancreas from the NOD mouse was digested with collatenase and individual islets were isolated manually. The infiltrating lymphocytes were then obtained by mild trypsin digestion of the islets. The insulin specific T cell lines or clones were propagated by serial stimulation in the presence of NOD spleen cells, porcine insulin and lymphokines. Clones were obtained by limiting dilution of the B chain (9-23) specific T cell lines in the presence of the antigen presenting cells and porcine insulin at 25 μg/ml. Wells with a growing population of cells following limiting dilution were expanded in appropriate medium, and after one cycle of growth were tested for reactivity to the B chain (9-23) peptide of insulin by evaluating the proliferative response.
(§2) Insulin B chain (9-23) (SEQ ID NO:2) specific mouse (NOD) T cell clones were isolated from infiltrated islets as described in Example 2. Peptide analogues with single alanine substitutions were prepared as described in Example 1. The effect of each analogue on T cell prolircration was then evaluated using an assay performed in 96-well flat bottom microtiter plates (see Daniel et al., Eur. J. Immunol. 25 :1056, 1995). Briefly 25,000 T cell clones along with 1 million irradiated NOD spleen cells were cultured in the presence of 50 μg/ml of insulin B chain 9-23 peptide or any of the alanine substituted peptides listed below in triplicate sets. The plates were incubated for a total of 72 hours in 7% carbon dioxide atmosphere with a pulse of 1 μCi/well of tritiated thymidine for the last 6-8 hours of culture. Cells were harvested on a glass fiber filter and the associated radioactivity was counted in a liquid scintillation counter. Results are expressed as mean counts per minute of triplicate wells.
NOD T cell clones were incubated in the presence of 50 μM of either the native B chain (9-23) peptide or NBI-6024. The data in Table 3 represent the mean of triplicate sample±standard error of the mean. Within Table 3, S.I. (Stimulation Index)=proliferation (cpm) in the presence of the peptide/proliferation (cpm) in medium alone.

Another experiment deals with T cell clone PD12-4.29. On the procedure: as §1, §2
A further experiment has as its system T cell clone PD12-4.34. On the procedure: as §1, §2
Another experiment concerns T cell clone PD12-4.4. On the procedure:
as §1, §2

For another experiment, the system named is T cell clone PD6-4.3. On the procedure:
as §1, §2

Take “Modified Position 10: insulin B chain (9-23) peptide analogue with native residue H at position 10 substituted with alanine”: the “Response (cpm)” value in the experiment with T cell clone PD12-2.40 stood at 1409 cpm; in the experiment on T cell clone PD12-4.29, 15484 cpm; with T cell clone PD12-4.34, 356 cpm; in the experiment with T cell clone PD12-4.4, 823 cpm; with T cell clone PD6-4.3 it was 12507 cpm.
The corresponding values for “Modified Position 11: insulin B chain (9-23) peptide analogue with native residue L at position 11 substituted with alanine” are 2594 cpm, 18416 cpm, 190 cpm, 474 cpm and 14148 cpm.
The matching figures for “Modified Position 19: insulin B chain (9-23) peptide analogue with native residue C at position 19 substituted with alanine”: 34212 cpm, 6054 cpm, 689 cpm, 4295 cpm and 7678 cpm.
The corresponding values for “Modified Position 20: insulin B chain (9-23) peptide analogue with native residue G at position 20 substituted with alanine” are 38685 cpm, 13736 cpm, 466 cpm, 1323 cpm and 2440 cpm.
Take “Modified Position 21: insulin B chain (9-23) peptide analogue with native residue E at position 21 substituted with alanine”: the “Response (cpm)” value is given as 39087 cpm with T cell clone PD12-2.40; 4904 cpm in the experiment on T cell clone PD12-4.29; 773 cpm with T cell clone PD12-4.34; 7900 cpm in the experiment on T cell clone PD12-4.4; 91 cpm in the experiment on T cell clone PD6-4.3.
Consider “Modified Position 22: insulin B chain (9-23) peptide analogue with native residue R at position 22 substituted with alanine”, for which the “Response (cpm)” value with T cell clone PD12-2.40 is listed as 51722 cpm; in the experiment on T cell clone PD12-4.29, 12635 cpm; in the experiment on T cell clone PD12-4.34, 1555 cpm; in the experiment with T cell clone PD12-4.4, 1313 cpm; in the experiment with T cell clone PD6-4.3 it was 6555 cpm.
The corresponding values for “Modified Position 23: insulin B chain (9-23) peptide analogue with native residue G at position 23 substituted with alanine” are 75441 cpm, 18422 cpm, 791 cpm, 3228 cpm and 14304 cpm.
